Values of other authors in US20140350097A1, “TREATMENT OF HYPOTENSION ASSOCIATED WITH HEMODIALYSIS” (priority 2013, published 2014).

Legend:
[1] = tested on: normal animals and animals with hypotensive shock; details: cited from earlier work
[2] = tested on: LPS-induced hypotension in animals; details: intravenous injection; cited from earlier work

CNC(=N)NCCC[C@H](N)C(=O)O [N-monomethyl-L-arginine, N^G-monomethyl-L-arginine]
effect on blood pressure [1]: can cause hypertension | effect on LPS-induced hypotension [2]: reverse LPS-induced hypotension
